Experimental data as given in publication PMC5148673 (European journal of medicinal chemistry, 2016).

Columns and labels:
Assay type in all cases: cell-based, human
BT-474 cells = assay: Flow cytometry cell cycle analysis
SKBR-3 cells = assay: Confocal microscopy intracellular distribution, SKBR-3; settings: SKBR-3, 5 μM, 30 min, 37 °C
MCF-7 cells = assay: Confocal microscopy intracellular distribution, MCF-7; settings: MCF-7, 30 min, 4 h, 24 h incubation

Row | SMILES | effect on cell cycle inhibition (BT-474 cells) | DOX fluorescence distribution in cells (SKBR-3 cells) | DOX fluorescence in cells (MCF-7 cells)
1 | N=C(N)NCCC[C@H](N)C(=O)N[C@@H](CC(=O)N[C@@H](Cc1ccccc1)C(=O)O)c1cccc2ccccc12 [Compound 5, Arg-aminonaphthylpropionic acid-Phe] | no significant effect on cell cycle inhibition |  | 
2 | COc1cccc2c1C(=O)c1c(O)c3c(c(O)c1C2=O)C[C@@](O)(C(=O)CO)C[C@@H]3O[C@H]1C[C@H](N)[C@H](O)[C@H](C)O1 [DOX, Doxorubicin] |  | strong DOX fluorescence in both the nucleus and cytoplasm | fluorescence was seen in 30 min
